According to PubChem BioAssay (NCI):
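1) Cells in 96-well plates. 2) Compound, 48 h, 5 concentrations. 3) Linear interpolation between surrounding doses. 4) Unreached endpoint = highest concentration. The concentration for 50% growth inhibition is given as GI50. TGI: concentration producing complete growth inhibition.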

Columns and labels:
Assay in all cases: DTP human tumour cell line panel, 48 h
786-0 renal = tested on: 786-0 renal
A498 renal = tested on: A498 renal
A549 NSCLC = tested on: A549 NSCLC
ACHN renal = tested on: ACHN renal
BT-549 breast = tested on: BT-549 breast
CAKI-1 renal = tested on: CAKI-1 renal
CCRF-CEM leukemia = tested on: CCRF-CEM leukemia
COLO 205 colon = tested on: COLO 205 colon
DU-145 prostate = tested on: DU-145 prostate
EKVX NSCLC = tested on: EKVX NSCLC
HCC-2998 colon = tested on: HCC-2998 colon
HCT-116 colon = tested on: HCT-116 colon
HCT-15 colon = tested on: HCT-15 colon
HL-60(TB) leukemia = tested on: HL-60(TB) leukemia
HOP-62 NSCLC = tested on: HOP-62 NSCLC
HOP-92 NSCLC = tested on: HOP-92 NSCLC
HS 578T breast = tested on: HS 578T breast
HT29 colon = tested on: HT29 colon
IGROV1 ovarian = tested on: IGROV1 ovarian
K-562 leukemia = tested on: K-562 leukemia
KM12 colon = tested on: KM12 colon
LOX IMVI melanoma = tested on: LOX IMVI melanoma
M14 melanoma = tested on: M14 melanoma
MALME-3M melanoma = tested on: MALME-3M melanoma
MCF7 breast = tested on: MCF7 breast
MDA-MB-231 breast = tested on: MDA-MB-231 breast
MDA-MB-435 = tested on: MDA-MB-435
MOLT-4 leukemia = tested on: MOLT-4 leukemia
NCI-H226 lung = tested on: NCI-H226 lung
NCI-H23 lung = tested on: NCI-H23 lung
NCI-H460 lung = tested on: NCI-H460 lung
NCI-H522 lung = tested on: NCI-H522 lung
NCI/ADR-RES ovarian = tested on: NCI/ADR-RES ovarian
OVCAR-3 ovarian = tested on: OVCAR-3 ovarian
OVCAR-4 ovarian = tested on: OVCAR-4 ovarian
OVCAR-5 ovarian = tested on: OVCAR-5 ovarian
OVCAR-8 ovarian = tested on: OVCAR-8 ovarian
PC-3 prostate = tested on: PC-3 prostate
RPMI-8226 leukemia = tested on: RPMI-8226 leukemia
RXF 393 renal = tested on: RXF 393 renal
SF-268 CNS = tested on: SF-268 CNS
SF-295 CNS = tested on: SF-295 CNS
SF-539 CNS = tested on: SF-539 CNS
SK-MEL-2 melanoma = tested on: SK-MEL-2 melanoma
SK-MEL-28 melanoma = tested on: SK-MEL-28 melanoma
SK-MEL-5 melanoma = tested on: SK-MEL-5 melanoma
SK-OV-3 ovarian = tested on: SK-OV-3 ovarian
SN12C renal = tested on: SN12C renal
SNB-19 CNS = tested on: SNB-19 CNS
SNB-75 CNS = tested on: SNB-75 CNS
SR leukemia = tested on: SR leukemia
SW-620 colon = tested on: SW-620 colon
T-47D breast = tested on: T-47D breast
TK-10 renal = tested on: TK-10 renal
U251 CNS = tested on: U251 CNS
UACC-257 melanoma = tested on: UACC-257 melanoma
UACC-62 melanoma = tested on: UACC-62 melanoma
UO-31 renal = tested on: UO-31 renal

CCCC(=O)OCC1OC(n2cnc3c(=S)nc(N)[nH]c32)C(OC(=O)CCC)C1OC(=O)CCC (stereo unspecified)
GI50 (786-0 renal): 2.92 µM | TGI (786-0 renal): 14.7 µM | GI50 (A498 renal): 2.98 µM | TGI (A498 renal): > 35.9 µM | GI50 (A549 NSCLC): 25.2 µM | TGI (A549 NSCLC): > 100 µM | GI50 (ACHN renal): 4.96 µM | TGI (ACHN renal): > 68 µM | GI50 (BT-549 breast): 2.55 µM | TGI (BT-549 breast): 29.3 µM | GI50 (CAKI-1 renal): 2.4 µM | TGI (CAKI-1 renal): > 47.5 µM | GI50 (CCRF-CEM leukemia): 2.26 µM | TGI (CCRF-CEM leukemia): > 27.6 µM | GI50 (COLO 205 colon): 4.73 µM | TGI (COLO 205 colon): 14.6 µM | GI50 (DU-145 prostate): 2.54 µM | TGI (DU-145 prostate): 51.3 µM | GI50 (EKVX NSCLC): 5.36 µM | TGI (EKVX NSCLC): > 100 µM | GI50 (HCC-2998 colon): 2.52 µM | TGI (HCC-2998 colon): 23.6 µM | GI50 (HCT-116 colon): 2.72 µM | TGI (HCT-116 colon): 19.8 µM | GI50 (HCT-15 colon): 7.6 µM | TGI (HCT-15 colon): > 100 µM | GI50 (HL-60(TB) leukemia): 5.27 µM | TGI (HL-60(TB) leukemia): > 57.6 µM | GI50 (HOP-62 NSCLC): 2.05 µM | TGI (HOP-62 NSCLC): 15 µM | GI50 (HOP-92 NSCLC): 1.4 µM | TGI (HOP-92 NSCLC): > 48.3 µM | GI50 (HS 578T breast): 12.5 µM | TGI (HS 578T breast): > 95.7 µM | GI50 (HT29 colon): 5.63 µM | TGI (HT29 colon): 39.9 µM | GI50 (IGROV1 ovarian): 5.93 µM | TGI (IGROV1 ovarian): 45.8 µM | GI50 (K-562 leukemia): 3.92 µM | TGI (K-562 leukemia): > 100 µM | GI50 (KM12 colon): 3.76 µM | TGI (KM12 colon): 22 µM | GI50 (LOX IMVI melanoma): 0.574 µM | TGI (LOX IMVI melanoma): > 37 µM | GI50 (M14 melanoma): 1.75 µM | TGI (M14 melanoma): 9.32 µM | GI50 (MALME-3M melanoma): 1.66 µM | TGI (MALME-3M melanoma): 36.5 µM | GI50 (MCF7 breast): 2.79 µM | TGI (MCF7 breast): 23.4 µM | GI50 (MDA-MB-231 breast): 4.42 µM | TGI (MDA-MB-231 breast): > 100 µM | GI50 (MDA-MB-435): 3.41 µM | TGI (MDA-MB-435): 46.9 µM | GI50 (MOLT-4 leukemia): 3.93 µM | TGI (MOLT-4 leukemia): > 85.3 µM | GI50 (NCI-H226 lung): 5.47 µM | TGI (NCI-H226 lung): > 100 µM | GI50 (NCI-H23 lung): 4.01 µM | TGI (NCI-H23 lung): 33 µM | GI50 (NCI-H460 lung): 3.85 µM | TGI (NCI-H460 lung): 19.3 µM | GI50 (NCI-H522 lung): 2.58 µM | TGI (NCI-H522 lung): 14.2 µM | GI50 (NCI/ADR-RES ovarian): 5.41 µM | TGI (NCI/ADR-RES ovarian): > 100 µM | GI50 (OVCAR-3 ovarian): 2.08 µM | TGI (OVCAR-3 ovarian): 6.19 µM | GI50 (OVCAR-4 ovarian): 2.73 µM | TGI (OVCAR-4 ovarian): 35.8 µM | GI50 (OVCAR-5 ovarian): 3.06 µM | TGI (OVCAR-5 ovarian): > 85.5 µM | GI50 (OVCAR-8 ovarian): 4.72 µM | TGI (OVCAR-8 ovarian): > 100 µM | GI50 (PC-3 prostate): 3.42 µM | TGI (PC-3 prostate): > 100 µM | GI50 (RPMI-8226 leukemia): 3.97 µM | TGI (RPMI-8226 leukemia): 57.6 µM | GI50 (RXF 393 renal): 4.89 µM | TGI (RXF 393 renal): 24.2 µM | GI50 (SF-268 CNS): 4.1 µM | TGI (SF-268 CNS): > 100 µM | GI50 (SF-295 CNS): 0.906 µM | TGI (SF-295 CNS): > 25 µM | GI50 (SF-539 CNS): 2.6 µM | TGI (SF-539 CNS): 18.4 µM | GI50 (SK-MEL-2 melanoma): 3.61 µM | TGI (SK-MEL-2 melanoma): > 44.5 µM | GI50 (SK-MEL-28 melanoma): 23.6 µM | TGI (SK-MEL-28 melanoma): 98 µM | GI50 (SK-MEL-5 melanoma): 6.43 µM | TGI (SK-MEL-5 melanoma): 19.5 µM | GI50 (SK-OV-3 ovarian): 1.56 µM | TGI (SK-OV-3 ovarian): 9.94 µM | GI50 (SN12C renal): 3.81 µM | TGI (SN12C renal): > 100 µM | GI50 (SNB-19 CNS): 27 µM | TGI (SNB-19 CNS): > 100 µM | GI50 (SNB-75 CNS): 1.26 µM | TGI (SNB-75 CNS): 12.2 µM | GI50 (SR leukemia): 1.03 µM | TGI (SR leukemia): 36.3 µM | GI50 (SW-620 colon): 5.68 µM | TGI (SW-620 colon): > 77.7 µM | GI50 (T-47D breast): 3.37 µM | TGI (T-47D breast): 23 µM | GI50 (TK-10 renal): 1.91 µM | TGI (TK-10 renal): 16.4 µM | GI50 (U251 CNS): 13.3 µM | TGI (U251 CNS): > 100 µM | GI50 (UACC-257 melanoma): 8.61 µM | TGI (UACC-257 melanoma): > 100 µM | GI50 (UACC-62 melanoma): 2.81 µM | TGI (UACC-62 melanoma): 16 µM | GI50 (UO-31 renal): 3.99 µM | TGI (UO-31 renal): > 95.5 µM
